{"source": "patent US20180235916A1", "about": "“ENHANCING BETA CELL REPLICATION AND/OR SURVIVAL” (priority 2015, published 2018)", "key": {"[1]": {"tested_on": "INS-1 cells", "test": "INS-1 cell proliferation, 3H-thymidine incorporation assay", "format": "cell-based", "details": "for INS-1 cell proliferation, single agents of TSPO experiment: each agent alone, midazolam or clonazepam 100 nM; for effect on GABA-stimulated INS-1 cell proliferation: low doses of PAM with GABA, FIG. 9 panels D-G", "protocol": "1. ^3H-thymidine incorporation assay: INS-1 cells at 1×10^5/well were treated in triplicate with indicated concentrations of individual compounds and cultured in 10% FCS RPMI164 medium in the presence of 0.3 μCi/well of 3H-thymidine for 48 hours (an optimal time period). The cells were harvested and the levels of ^3H-thymidine uptake in individual wells were measured by beta-counter.\n1. ^3H-thymidine incorporation assay: INS-1 cells at 1×10^5/well were treated in triplicate with indicated concentrations of individual compounds and cultured in 10% FCS RPMI164 medium in the presence of 0.3 uCi/well of ^3H-thymidine for 48 hours (an optimal time period). The cells were harvested and the levels of ^3H-thymidine uptake in individual wells were measured by beta-counter.\nINS-1 cells at 1×10^5/well were treated in triplicate with indicated concentrations of individual compounds and cultured in 10% FCS RPMI164 medium in the presence of ^3H-thymidine (0.3 μCi/well) for 48 hours (an optimal time period). The levels of ^3H-thymidine uptake in individual wells were measured by a scintillation counter."}, "[2]": {"test": "Solubility of test compounds (stock solutions)"}, "[3]": {"tested_on": "adult human β-cells in islet xenoplants", "details": "oral GABA treatment; from less than 1% without; cited from earlier work"}, "[4]": {"details": "long-term oral GABA, human clinical trials, epileptic seizures and cerebrovascular disorders; cited from earlier work"}, "[5]": {"tested_on": "human islets", "format": "cell-based", "protocol": "FIG. 2. Human islets (50/well) were incubated in media with, or without, alprazolam (30 ng/ml) for 4 days in the presence of ^3H thymidine. Data shown are the average rate of proliferation relative to that of cultures with media alone (designated as 1). N=two independent studies with triplicate cultures. Data was very similar in both studies.\nN=two independent studies"}, "[6]": {"target": "mitochondrial translocator protein (TSPO) (Homo sapiens, UniProt P30536)", "sequence (P30536 whole entry)": "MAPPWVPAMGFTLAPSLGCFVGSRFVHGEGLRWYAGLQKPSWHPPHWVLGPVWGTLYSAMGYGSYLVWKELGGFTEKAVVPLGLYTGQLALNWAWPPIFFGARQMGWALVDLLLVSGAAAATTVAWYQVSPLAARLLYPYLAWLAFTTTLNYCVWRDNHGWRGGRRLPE", "details": "cited from earlier work"}, "[7]": {"details": "patients with T1D or T2D, poor glucose control, after 8 weeks of treatment, vs placebo; cited from earlier work"}, "[8]": {"details": "persons receiving the drug therapeutically; cited from earlier work"}, "[9]": {"tested_on": "EAE", "details": "stressed rats; cited from earlier work"}, "[10]": {"details": "PAM 100 nM with GABA 0.3 mM, 48 hrs"}, "[11]": {"details": "PAM at 10^−7 or 3×10^−8 M with GABA"}, "[12]": {"details": "GABA 0.3 mM, PK11195 1 uM, 48 hrs"}, "[13]": {"details": "PAM alone at 10 or/and 100 nM, FIG. 9 panel B"}, "[14]": {"details": "compound alone at 10^−7-10^−8 M"}}, "note": "“Also recorded” adds a separate entry of the source. Read-outs that look alike come from different tables or passages of the source.", "data": [{"smiles": "O=C1CN=C(c2ccccc2Cl)c2cc([N+](=O)[O-])ccc2N1", "note": "[clonazepam]", "values": [{"measurement": "INS-1 cell proliferation", "setting": "[1]; [10]", "result": "enhanced cell proliferation"}, {"measurement": "effect on GABA-induced INS-1 cell proliferation", "setting": "[1]; [11]", "result": "significantly enhanced GABA-stimulated INS-1 cell proliferation"}, {"measurement": "INS-1 cell proliferation", "setting": "[1]; compound alone at 10^−4-10^−9 M, 48 hours", "result": "did not significantly change the proliferation of INS-1 cells"}, {"measurement": "INS-1 cell proliferation, single agents of TSPO experiment", "setting": "[1]; [12]", "result": "but not clonazepam or PK11195 induced INS-1 cell proliferation"}, {"measurement": "effect on GABA-stimulated INS-1 cell proliferation", "setting": "[1]", "result": "enhanced GABA-stimulated INS-1 cell proliferation"}]}, {"smiles": "Cc1ncc2n1-c1ccc(Cl)cc1C(c1ccccc1F)=NC2", "note": "[midazolam]", "values": [{"measurement": "solubility", "setting": "[2]; water", "result": 6.25, "unit": "mM"}, {"measurement": "INS-1 cell proliferation", "setting": "[1]; [10]", "result": "enhanced cell proliferation"}, {"measurement": "INS-1 cell proliferation", "setting": "[1]; [13]", "result": "significantly stimulated proliferation of INS-1 cells"}, {"measurement": "effect on GABA-induced INS-1 cell proliferation", "setting": "[1]; [11]", "result": "enhanced GABA-induced INS-1 cell proliferation"}, {"measurement": "INS-1 cell proliferation", "setting": "[1]; PAM at 10^−7 or 3×10^−8 M with GABA at 0.03-0.01 mM", "result": "significantly enhanced INS-1 cell proliferation"}, {"measurement": "toxicity against INS-1 cells", "setting": "[1]; compound alone at 10^−5 M", "result": "slight toxicity"}, {"measurement": "INS-1 cell proliferation", "setting": "[1]; compound alone at 10^−7-3×10^−8 M, FIG. 4B", "result": "significantly enhanced the proliferation of INS cells"}, {"measurement": "INS-1 cell proliferation", "setting": "[1]; [14]", "result": "significantly enhanced INS-1 cell proliferation"}, {"measurement": "INS-1 cell proliferation, single agents of TSPO experiment", "setting": "[1]; [12]", "result": "induced INS-1 cell proliferation"}, {"measurement": "effect on GABA-stimulated INS-1 cell proliferation", "setting": "[1]", "result": "enhanced GABA-stimulated INS-1 cell proliferation"}]}, {"smiles": "CCC(C)N(C)C(=O)c1cc2ccccc2c(-c2ccccc2Cl)n1", "note": "(centres unmarked) [PK11195]", "values": [{"measurement": "effect of TSPO inhibitor on GABA + midazolam or clonazepam enhanced INS-1 cell proliferation", "setting": "[1]; PK11195 1 uM, GABA 0.3 mM, PAM 100 nM, 48 hrs, FIG. 9 panel H", "result": "not affected by PK11195; also recorded: did not affect the ability of GABA and the tested benzodiazepines to enhance INS-1 cell replication"}, {"measurement": "INS-1 cell proliferation, single agents of TSPO experiment", "setting": "[1]; [12]", "result": "but not clonazepam or PK11195 induced INS-1 cell proliferation"}]}, {"smiles": "NCCCC(=O)O", "note": "[GABA, gamma-aminobutyric acid]", "values": [{"measurement": "replicating adult human β-cells in islet xenoplants", "setting": "[3]", "result": "2-3%"}, {"measurement": "adverse effects", "setting": "[4]", "result": "no adverse effects"}, {"measurement": "clinical benefit", "setting": "[4]", "result": "no clinical benefit"}, {"measurement": "INS-1 cell proliferation", "setting": "[1]; 0.01 mM GABA alone, FIG. 9 panels C-G", "result": "did not stimulate INS-1 proliferation"}, {"measurement": "INS-1 cell proliferation", "setting": "[1]; GABA alone at 0.03-0.01 mM", "result": "failed to induce INS-1 cell proliferation; also recorded: did not significantly stimulate INS-1 cell proliferation"}, {"measurement": "INS-1 cell proliferation", "setting": "[1]; GABA alone at 0.03-0.3 mM, FIG. 9 panels C-G", "result": "stimulated INS-1 cell proliferation"}, {"measurement": "INS-1 cell proliferation", "setting": "[1]; GABA alone at 1-0.1 mM", "result": "stimulated INS-1 cell proliferation"}, {"measurement": "INS-1 cell proliferation, single agents of TSPO experiment", "setting": "[1]; [12]", "result": "induced INS-1 cell proliferation"}, {"measurement": "human islet cell proliferation", "setting": "[5]; 0.03 mM GABA alone, 4 days, FIG. 3", "result": "did not significantly enhance human islet cell proliferation"}, {"measurement": "human islet cell proliferation", "setting": "[5]; 0.03 mM GABA alone, FIG. 12", "result": "did not significantly enhance human islet cell proliferation"}, {"measurement": "human islet cell proliferation", "setting": "[5]; GABA alone at 0.3-3 mM, FIG. 12", "result": "significantly enhanced human islet cell proliferation"}, {"measurement": "level of GABA alone required to achieve a similar level of proliferation", "setting": "[5]; similar to 0.03 mM GABA + 100 nM alprazolam, FIG. 12", "result": 0.3, "unit": "mM"}, {"measurement": "level of GABA alone required to achieve a similar level of proliferation", "setting": "[5]; similar to 0.03 mM GABA + alprazolam 30 ng/ml, FIG. 3", "result": 0.3, "unit": "mM"}]}, {"smiles": "Cc1nnc2n1-c1ccc(Cl)cc1C(c1ccccc1)=NC2", "note": "[alprazolam]", "values": [{"measurement": "binding to TSPO", "setting": "[6]", "result": "does not bind to TSPO"}, {"measurement": "HbA1c levels", "setting": "[7]", "result": "significantly reduced"}, {"measurement": "concentration in the serum", "setting": "[8]", "result": "10 to 100", "unit": "ng/mL"}, {"measurement": "INS-1 cell proliferation", "setting": "[1]; 0.01 mM GABA in the presence of 30 or 100 nM alprazolam, FIG. 9 panel C", "result": "significantly increased INS-1 cell proliferation"}, {"measurement": "INS-1 cell proliferation", "setting": "[1]; [13]", "result": "significantly stimulated proliferation of INS-1 cells"}, {"measurement": "ability to enhance GABA's pro-mitotic effects on INS-1 cells", "setting": "[1]; alprazolam at high concentration of GABA (0.1 or 0.3 mM)", "result": "had less ability to enhance GABA's pro-mitotic effects"}, {"measurement": "EAE and inflammation in the spinal cords", "setting": "[9]", "result": "inhibited EAE and inflammation in the spinal cords"}, {"measurement": "human islet cell proliferation", "setting": "[5]; 0.03 mM GABA together with 100 nM alprazolam, FIG. 12", "result": "significantly enhanced human islet cell proliferation"}, {"measurement": "human islet cell proliferation enhanced", "setting": "[5]; 0.03 mM GABA together with alprazolam 30 ng/ml, 4 days, FIG. 3", "result": 138, "unit": "%"}, {"measurement": "human islet cell proliferation promoted compared to cultures with no alprazolam", "setting": "[5]; alprazolam 30 ng/ml alone, no added GABA, 4 days, FIG. 2", "result": "about 123%"}, {"measurement": "human islet cell proliferation relative to the corresponding GABA (alone) dose", "setting": "[5]; co-treatment 100 nM alprazolam and GABA, FIG. 12", "result": "significantly increased human islet cell proliferation"}, {"measurement": "human islet cell proliferation", "setting": "[5]; dose range of alprazolam alone, low concentrations, FIG. 10", "result": "promoted human islet cell proliferation"}]}, {"smiles": "Cc1cc(NC(=O)/C(C#N)=C(\\O)C2CC2)ccc1C(F)(F)F", "note": "[AP325]", "values": [{"measurement": "soluble in DMSO", "setting": "[2]; in DMSO", "result": 50, "unit": "mM"}, {"measurement": "effect on GABA-induced INS-1 cell proliferation", "setting": "[1]; AP325 at 10^−7-10^−8 M with GABA, FIG. 7", "result": "significantly enhanced GABA-induced INS-1 cell proliferation"}, {"measurement": "INS-1 cell proliferation (toxicity at high dose)", "setting": "[1]; compound alone at 10^−4-10^−5 M, FIG. 6", "result": "significantly inhibited INS-1 cell proliferation"}, {"measurement": "INS-1 cell proliferation", "setting": "[1]; compound alone at 10^−6-10^−10, FIG. 6", "result": "did not increase significantly the proliferation of INS-1 cells"}, {"measurement": "INS-1 cell proliferation", "setting": "[1]; [14]", "result": "slightly increased the proliferation of INS-1 cells"}, {"measurement": "INS-1 cell proliferation", "setting": "[1]; compound at 3×10^−7-10^−8 M together with 0.03 mM GABA", "result": "significantly promoted INS-1 cell proliferation"}, {"measurement": "INS-1 cell proliferation", "setting": "[1]; compound at 10^−6 M, data not shown", "result": "did not significantly change the proliferation of INS-1 cells"}, {"measurement": "INS-1 cell proliferation", "setting": "[1]; compound at 10^−7 together with 0.01 mM GABA", "result": "significantly stimulated INS-1 cell proliferation"}]}]}
